This passage reports viability, minimum viability and CC50 results from PubChem BioAssay AID2286 (Southern Research Specialized Biocontainment Screening …, 2010).

Test [1] can be described thus: MAGI-CCR5 and HeLa-R5-16 cytotoxicity, dose response, cytotoxicity control for HIV-1 fusion inhibitor project, cell-based, MAGI and MAGI-HeLa co-culture (AID 2286).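 For all read-outs here: cells exposed to compound for at least 64 h before ATP readout.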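 For minimum viability: 100% = median of DMSO vehicle wells with no ATP signal meaning 0%.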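 For viability: 100% = median of DMSO vehicle wells with no ATP signal meaning 0%.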 The conditions noted are these: MAGI-CCR5 cells viability, CellTiter-Glo ATP luminescence; for minimum viability: measured here: MAGI minimum viability across doses.
Test [2] relates to MAGI-CCR5 cells viability, CellTiter-Glo ATP luminescence. Described as above.
[3] abbreviates: MAGI-HeLa co-culture viability, at 50 µM, stronger effect = lower value.
The mark [4] stands for this setting: measured here: MAGI + HeLa-R5-16 co-culture viability.

Activity calls are given as the source filed them.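 Rule for the calls: active = minimum cell viability of 80% or lower across the dose range, counted as toxic; inactive = minimum cell viability above 80%.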 A value given as a limit tells only on which side of the number the result lay.

For `CCOC(=O)c1sc2nc3c(SCCC(=O)O)cc(C(=O)c4cc(OC)ccc4O)cn3c(=O)c2c1C`, the viability in test [1] (setting [3]) came out at 65.6%. The same compound had a minimum viability in test [1] (at 50 µM, stronger effect = lower value) of 68.7%. Also, the 50% cytotoxic concentration (CC50) in test [2] (setting [4]) is over 50 µM.
Turning to `O=[N+]([O-])c1cc(Cl)cc(/C=N/NC(=S)Nc2ccc(S(=O)(=O)N3CCOCC3)cc2)c1O`, the viability in test [1] (setting [3]) was 65.6%; in test [1] (at 50 µM (top of the series)), 98.8% (inactive). The minimum viability in test [1] (at 3.13 µM, stronger effect = lower value) was found to be 89.3%. Besides, the 50% cytotoxic concentration (CC50) in test [2] (setting [4]) is over 50 µM.
With `O=C1NC(=Nc2ccccc2Cl)S/C1=C\c1cccc([N+](=O)[O-])c1O`, the viability in test [1] (setting [3]) was 73.6%. Moreover, the minimum viability in test [1] (at 50 µM, stronger effect = lower value) came to 72.6%. Further, the CC50 in test [2] (setting [4]) is over 50 µM.
On to `O=C(O)c1ccc(Nc2nc(-c3cc4ccccc4oc3=O)cs2)cc1O`, for which the results for the viability in test [1] (setting [3]) and in test [1] (at 50 µM (top of the series)) were 77.6% and 85.6% (inactive), respectively. The same compound yielded a minimum viability in test [1] (at 50 µM, stronger effect = lower value) of 85.6%. Also, the CC50 in test [2] (setting [4]) is over 50 µM.
In the case of `O=C(O)COc1ccc(/C=C/C(=O)c2ccc(C3CCCCC3)cc2)cc1`, the viability in test [1] (setting [3]) worked out at 76.3%. Also, the minimum viability in test [1] (at 50 µM, stronger effect = lower value) turned out to be 48.7%. The results for the CC50 in test [2] and in test [2] (setting [4]) were 49.7 µM and over 50 µM, respectively.
`Cc1cc(Cl)ccc1OC(C)C(=O)Nc1ccc(C(=O)Nc2ccccc2C(=O)O)cc1` (stereo not given): the viability in test [1] (setting [3]) is 63.6%. Further, the minimum viability in test [1] (at 50 µM, stronger effect = lower value) was found to be 49.8%. Besides, the half-maximal cytotoxic concentration (CC50) was 48.8 µM in test [2] and over 50 µM in test [2] (setting [4]).
`CCc1ccc(S(=O)(=O)/N=C2\C=C(NS(=O)(=O)c3ccccc3)C(=O)c3ccccc32)cc1`: the viability in test [1] (setting [3]) came to 80%. The minimum viability in test [1] (at 50 µM, stronger effect = lower value) came out at 74.4%. Also, in test [2] (setting [4]), the CC50 was over 50 µM.
For the compound `Cc1nn(CCc2nn[nH]n2)c2nc(-c3ccc(C4CCCCC4)cc3)cc(C(F)(F)F)c12`, the viability in test [1] (setting [3]) was 66.9%. Also, in test [1] (at 50 µM, stronger effect = lower value), the minimum viability turned out to be 42.9%. In addition, the CC50 was 36.3 µM in test [2] and over 50 µM in test [2] (setting [4]).
As to `COc1ccc2c(c1)cc(C(=O)N/N=C/c1c(O)c(C(=O)O)cc3ccccc13)n2C`, the figures for the viability in test [1] (setting [3]) and in test [1] (at 50 µM (top of the series)) were 75.1% and 95.6% (inactive), respectively. The minimum viability in test [1] (at 1.56 µM, stronger effect = lower value) was determined as 89.5%. The CC50 in test [2] (setting [4]) is over 50 µM.
Take `N#C/C(=C\c1ccc(O)c([N+](=O)[O-])c1)c1nc2ccccc2s1`: the viability in test [1] (setting [3]) was 41.9%. The same compound returned a minimum viability in test [1] (at 50 µM, stronger effect = lower value) of 21.9%. Further, the figures for the half-maximal cytotoxic concentration (CC50) in test [2] and in test [2] (setting [4]) were 11.7 µM and 43.8 µM, respectively.
Regarding `CC(/C=C1\SC(=S)N(CCCC(=O)Nc2ccc(C(=O)O)cc2)C1=O)=C\c1ccccc1`, in test [1] (setting [3]), the viability was 69.6%. In test [1] (at 50 µM, stronger effect = lower value), this compound displayed a minimum viability of 60.9%. Further, the half-maximal cytotoxic concentration (CC50) in test [2] (setting [4]) is over 50 µM.
Take `Oc1c(Cl)cc(Cl)c(Cl)c1Cc1c(O)c(Cl)cc(Cl)c1Cl`: the viability in test [1] (setting [3]) amounted to 23%. The minimum viability in test [1] (at 50 µM, stronger effect = lower value) is 15.7%. Besides, the CC50 in test [2] was 1.96 µM; in test [2] (setting [4]) it was 7.05 µM.
`O=C(O)CN1C(=O)/C(=C\c2ccccc2OCc2ccc(Cl)cc2Cl)SC1=S`: the results for the viability in test [1] (setting [3]) and in test [1] (at 50 µM (top of the series)) were 67.5% and 84.5% (inactive), respectively. In test [1] (at 50 µM, stronger effect = lower value), this compound yielded a minimum viability of 84.5%. The CC50 in test [2] (setting [4]) was over 50 µM.
On to `O=C(NN1C(=O)/C(=C\c2ccc(O)c([N+](=O)[O-])c2)SC1=S)c1ccccc1Cl`, for which the viability in test [1] (setting [3]) stood at 69.9%. This compound also came in with a minimum viability in test [1] (at 50 µM, stronger effect = lower value) of 62.8%. For the same compound, the CC50 in test [2] (setting [4]) was over 50 µM.
Turning to `O=C(OCC1OC(n2ncc(=O)[nH]c2=O)C(OC(=O)c2ccccc2)C1OC(=O)c1ccccc1)c1ccccc1` (stereo not given), the viability in test [1] (setting [3]) is 111%. The minimum viability in test [1] (at 50 µM, stronger effect = lower value) worked out at 44%. In addition, the CC50 in test [2] is 42.2 µM.
As to `O=c1cc(-c2ccccc2Cl)oc2c(NS(=O)(=O)c3cc(Cl)cc(Cl)c3O)ccc(O)c12`, the viability in test [1] (setting [3]) turned out to be 20.8%. Moreover, the minimum viability in test [1] (at 50 µM, stronger effect = lower value) was 16.3%. The CC50 is 5.61 µM in test [2] and 15.6 µM in test [2] (setting [4]).
`COc1ccc(-c2nn(-c3ccccc3)cc2/C=C2/SC(=S)N(CCCC(=O)O)C2=O)c(C)c1`: in test [1] (setting [3]), the viability is 68.8%. Also, in test [1] (at 50 µM, stronger effect = lower value), the minimum viability amounted to 57%. Further, in test [2] (setting [4]), the CC50 was over 50 µM.
For `O=C(O)c1cccc(NC(=S)N/N=C/c2ccccc2OCc2cccc(Br)c2)c1`, the viability in test [1] (setting [3]) worked out at 28.4%. For the same compound, the minimum viability in test [1] (at 50 µM, stronger effect = lower value) is 9.27%. Also, the results for the CC50 in test [2] and in test [2] (setting [4]) were 22.3 µM and 23.9 µM, respectively.
As for `CC(C)(C)c1ccc(OCC(=O)NNC(=S)NC(=O)c2ccccc2[N+](=O)[O-])c(Br)c1`, the viability in test [1] (setting [3]) was determined as 67.6%. Also, the minimum viability in test [1] (at 50 µM, stronger effect = lower value) worked out at 71%. For the same compound, the CC50 in test [2] (setting [4]) is over 50 µM.
Take `Cc1ccc(-c2nc(SCC(=O)Nc3ccccc3OC(F)F)c3c(C)c(C(=O)O)sc3n2)cc1`: in test [1] (setting [3]), the viability was 58%. The minimum viability in test [1] (at 50 µM, stronger effect = lower value) amounted to 36.8%. Moreover, the CC50 was 36.4 µM in test [2] and over 50 µM in test [2] (setting [4]).
With `O=S(=O)(Nc1nc(-c2sccc2Cl)cs1)c1cc(Cl)ccc1Cl`, the viability in test [1] (setting [3]) turned out to be 70.8%. Moreover, the minimum viability in test [1] (at 50 µM, stronger effect = lower value) was 47.7%. The CC50 in test [2] (setting [4]) was over 50 µM.
